Measurements reported in patent US10681909B2, “Herbicidal triazoles” (FMC Corporation, priority 2014, dated 2020).

Legend:
[1] = test system: foxtail, green; experiment: Test E preemergence; format: in vivo, Setaria viridis; settings: scale 0 to 100
Excerpt: (§1) Seeds of plant species selected from corn (Zea mays), soybean (Glycine max), lambsquarters (Chenopodium album), poinsettia, wild (wild poinsettia, Euphorbia heterophylla), pigweed, palmer (palmer pigweed, Amaranthus palmeri), waterhemp (common waterhemp, Amaranthus rudis), surinam grass (Brachiaria decumbens), crabgrass, large (large crabgrass, Digitaria sanguinalis), crabgrass, Brazilian (Brazilian crabgrass, Digitaria horizontalis), panicum, fall (fall panicum, Panicum dichotomiflorum), foxtail, giant (giant foxtail, Setaria faberii), foxtail, green (green foxtail, Setaria viridis), goosegrass (Eleusine indica), johnsongrass (Sorghum halepense), ragweed (common ragweed, Ambrosia elatior), barnyardgrass (Echinochloa crus-galli), sandbur (southern sandbur, Cenchrus echinatus), arrowleaf sida (Sida rhombifolia), ryegrass, Italian (Italian ryegrass, Lolium multiflorum), dayflower, VA (Virginia dayflower, Commelina virginica), field bindweed (Convolvulus arvensis), cocklebur (common cocklebur, Xanthium strumarium), morningglory (Ipomoea coccinea), nightshade (eastern black nightshade, Solanum ptycanthum), kochia (Kochia scoparia), nutsedge, yellow (yellow nutsedge, Cyperus esculentus), smartweed (ladysthumb smartweed, Polygonum persicaria), velvetleaf (Abutilon theophrasti), horseweed (Conyza canadensis), and beggarticks (hairy beggarticks, Bidens pilosa), were planted into a silt loam soil and treated preemergence with test chemicals formulated in a non-phytotoxic solvent mixture which included a surfactant.
(§2) At the same time, plants from these crop and weed species and also waterhemp_RES1, (ALS & Triazine resistant common waterhemp, Amaranthus rudis), and waterhemp_RES2, (ALS & HPPD resistant common waterhemp, Amaranthus rudis) were planted in pots containing Sunshine Redi-Earth® planting medium comprising spaghnum peat moss, vermiculite, starter nutrients and dolomitic limestone were treated with postemergence applications of test chemicals formulated in the same manner. Plants ranged in height from 2 to 18 cm for postemergence treatments (1- to 4-leaf stage). Treated plants and controls were maintained in a greenhouse for 14 to 21 d, after which time all species were compared to controls and visually evaluated. Plant response ratings, summarized in Table E, are based on a scale of 0 to 100 where 0 is no effect and 100 is complete control. A dash (-) response means no test result.

[2] = test system: nutsedge, yellow; experiment: Test E preemergence; format: in vivo, Cyperus esculentus; settings: scale 0 to 100
Excerpt: as §1, §2

[3] = test system: beggarticks; experiment: Test E preemergence; format: in vivo, Bidens pilosa; settings: scale 0 to 100
Excerpt: as §1, §2

[4] = test system: panicum, fall; experiment: Test E preemergence; format: in vivo, Panicum dichotomiflorum; settings: scale 0 to 100
Excerpt: as §1, §2

[5] = test system: crabgrass, large; experiment: Test E preemergence; format: in vivo, Digitaria sanguinalis; settings: scale 0 to 100
Excerpt: as §1, §2

[6] = test system: ryegrass, Italian; experiment: Test E preemergence; format: in vivo, Lolium multiflorum; settings: scale 0 to 100
Excerpt: as §1, §2

[7] = test system: crabgrass, Brazilian; experiment: Test E postemergence; format: in vivo, Digitaria horizontalis; settings: Brazil, scale 0 to 100
Excerpt: as §1, §2

[8] = test system: dayflower, VA; experiment: Test E preemergence; format: in vivo, Commelina virginica; settings: scale 0 to 100
Excerpt: as §1, §2

[9] = test system: pigweed, palmer; experiment: Test E postemergence; format: in vivo, Amaranthus palmeri; settings: scale 0 to 100
Excerpt: as §1, §2

[10] = test system: corn; experiment: Test E preemergence; format: in vivo, Zea mays; settings: scale 0 to 100
Excerpt: as §1, §2

[11] = test system: ragweed; experiment: Test E preemergence; format: in vivo, Ambrosia elatior; settings: scale 0 to 100
Excerpt: as §1, §2

[12] = test system: soybean; experiment: Test E preemergence; format: in vivo, Glycine max; settings: scale 0 to 100
Excerpt: as §1, §2

[13] = test system: surinam grass; experiment: Test E preemergence; format: in vivo, Brachiaria decumbens; settings: scale 0 to 100
Excerpt: as §1, §2

[14] = test system: dayflower, VA; experiment: Test E postemergence; format: in vivo, Commelina virginica; settings: scale 0 to 100
Excerpt: as §1, §2

[15] = test system: ryegrass, Italian; experiment: Test E postemergence; format: in vivo, Lolium multiflorum; settings: scale 0 to 100
Excerpt: as §1, §2

[16] = test system: foxtail, giant; experiment: Test E preemergence; format: in vivo, Setaria faberii; settings: scale 0 to 100
Excerpt: as §1, §2

[17] = test system: kochia; experiment: Test E preemergence; format: in vivo, Kochia scoparia; settings: scale 0 to 100
Excerpt: as §1, §2

[18] = test system: waterhemp; experiment: Test E preemergence; format: in vivo, Amaranthus rudis; settings: scale 0 to 100
Excerpt: as §1, §2

For CCc1nc(-c2ccc(C(F)(F)F)cc2)nn1Cc1ccnc(C(F)(F)F)c1 [Compound 1, 4-[[5-ethyl-3-[4-(trifluoromethyl)phenyl]-1H-1,2,4-triazol-1-yl]methyl]-2-(trifluoromethyl)pyridine], the Plant response rating ([1]; 16 g ai/ha) was 20, the Plant response rating ([1]; 31 g ai/ha) was 50 and the Plant response rating ([1]; 62 g ai/ha) was 50. For the same compound, the Plant response rating ([1]; 125 g ai/ha) was 80, the Plant response rating ([1]; 250 g ai/ha) was 100 and the Plant response rating ([2]; 16 g ai/ha) was 0. For the same compound, the Plant response rating ([2]; 31 g ai/ha) was 0, the Plant response rating ([2]; 62 g ai/ha) was 0 and the Plant response rating ([2]; 125 g ai/ha) was 0. It also gave a Plant response rating ([2]; 250 g ai/ha) of 10, a Plant response rating ([3]; 16 g ai/ha) of 0 and a Plant response rating ([3]; 31 g ai/ha) of 0. It also gave a Plant response rating ([3]; 62 g ai/ha) of 0, a Plant response rating ([3]; 125 g ai/ha) of 20 and a Plant response rating ([3]; 250 g ai/ha) of 60. For the same compound, the Plant response rating ([4]; 16 g ai/ha) was 15, the Plant response rating ([4]; 31 g ai/ha) was 60 and the Plant response rating ([4]; 62 g ai/ha) was 80. It also gave a Plant response rating ([4]; 125 g ai/ha) of 100, a Plant response rating ([4]; 250 g ai/ha) of 100 and a Plant response rating ([5]; 16 g ai/ha) of 60. It also gave a Plant response rating ([5]; 31 g ai/ha) of 75, a Plant response rating ([5]; 62 g ai/ha) of 80 and a Plant response rating ([5]; 125 g ai/ha) of 95. It also gave a Plant response rating ([5]; 250 g ai/ha) of 100, a Plant response rating ([6]; 16 g ai/ha) of 0 and a Plant response rating ([6]; 31 g ai/ha) of 0. The Plant response rating ([6]; 62 g ai/ha) was 20, the Plant response rating ([6]; 125 g ai/ha) was 20 and the Plant response rating ([6]; 250 g ai/ha) was 40. The Plant response rating ([7]; 16 g ai/ha) was 20, the Plant response rating ([7]; 31 g ai/ha) was 20 and the Plant response rating ([7]; 62 g ai/ha) was 30. For the same compound, the Plant response rating ([7]; 125 g ai/ha) was 30, the Plant response rating ([7]; 250 g ai/ha) was 40 and the Plant response rating ([8]; 16 g ai/ha) was 5. It also gave a Plant response rating ([8]; 31 g ai/ha) of 15, a Plant response rating ([8]; 62 g ai/ha) of 25 and a Plant response rating ([8]; 125 g ai/ha) of 65. For the same compound, the Plant response rating ([8]; 250 g ai/ha) was 80, the Plant response rating ([9]; 16 g ai/ha) was 80 and the Plant response rating ([9]; 31 g ai/ha) was 90. It also gave a Plant response rating ([9]; 62 g ai/ha) of 90, a Plant response rating ([9]; 125 g ai/ha) of 100 and a Plant response rating ([9]; 250 g ai/ha) of 100. For the same compound, the Plant response rating ([10]; 16 g ai/ha) was 0, the Plant response rating ([10]; 31 g ai/ha) was 0 and the Plant response rating ([10]; 62 g ai/ha) was 10. For the same compound, the Plant response rating ([10]; 125 g ai/ha) was 25, the Plant response rating ([10]; 250 g ai/ha) was 35 and the Plant response rating ([11]; 16 g ai/ha) was 0. It also gave a Plant response rating ([11]; 31 g ai/ha) of 10, a Plant response rating ([11]; 62 g ai/ha) of 35 and a Plant response rating ([11]; 125 g ai/ha) of 65. For the same compound, the Plant response rating ([11]; 250 g ai/ha) was 75, the Plant response rating ([12]; 16 g ai/ha) was 0 and the Plant response rating ([12]; 31 g ai/ha) was 0. For the same compound, the Plant response rating ([12]; 62 g ai/ha) was 0, the Plant response rating ([12]; 125 g ai/ha) was 10 and the Plant response rating ([12]; 250 g ai/ha) was 35. It also gave a Plant response rating ([13]; 16 g ai/ha) of 0, a Plant response rating ([13]; 31 g ai/ha) of 0 and a Plant response rating ([13]; 62 g ai/ha) of 10. The Plant response rating ([13]; 125 g ai/ha) was 20, the Plant response rating ([13]; 250 g ai/ha) was 20 and the Plant response rating ([14]; 16 g ai/ha) was 20. For the same compound, the Plant response rating ([14]; 31 g ai/ha) was 25, the Plant response rating ([14]; 62 g ai/ha) was 40 and the Plant response rating ([14]; 125 g ai/ha) was 50. The Plant response rating ([14]; 250 g ai/ha) was 50, the Plant response rating ([15]; 16 g ai/ha) was 0 and the Plant response rating ([15]; 31 g ai/ha) was 10. The Plant response rating ([15]; 62 g ai/ha) was 10, the Plant response rating ([15]; 125 g ai/ha) was 15 and the Plant response rating ([15]; 250 g ai/ha) was 25. The Plant response rating ([16]; 16 g ai/ha) was 20, the Plant response rating ([16]; 31 g ai/ha) was 30 and the Plant response rating ([16]; 62 g ai/ha) was 80. It also gave a Plant response rating ([16]; 125 g ai/ha) of 80, a Plant response rating ([16]; 250 g ai/ha) of 98 and a Plant response rating ([17]; 16 g ai/ha) of 20. For the same compound, the Plant response rating ([17]; 31 g ai/ha) was 60, the Plant response rating ([17]; 62 g ai/ha) was 80 and the Plant response rating ([17]; 125 g ai/ha) was 90. The Plant response rating ([17]; 250 g ai/ha) was 95, the Plant response rating ([18]; 16 g ai/ha) was 20 and the Plant response rating ([18]; 31 g ai/ha) was 95. It also gave a Plant response rating ([18]; 62 g ai/ha) of 95, a Plant response rating ([18]; 125 g ai/ha) of 100 and a Plant response rating ([18]; 250 g ai/ha) of 100.
